Laboratory results as given in ChEMBL document CHEMBL5291721, “A preclinical secondary pharmacology resource illuminates target-adverse drug reaction associations of marketed drugs” (Nat Commun, 2023).

Legend:
[1] = biological target: Synaptic vesicular amine transporter (Rattus norvegicus, UniProt Q01827); type: functional
Androgen receptor = biological target: T1, Androgen receptor (Rattus norvegicus, UniProt P15207); type: functional
T1 sequence (P15207 whole entry): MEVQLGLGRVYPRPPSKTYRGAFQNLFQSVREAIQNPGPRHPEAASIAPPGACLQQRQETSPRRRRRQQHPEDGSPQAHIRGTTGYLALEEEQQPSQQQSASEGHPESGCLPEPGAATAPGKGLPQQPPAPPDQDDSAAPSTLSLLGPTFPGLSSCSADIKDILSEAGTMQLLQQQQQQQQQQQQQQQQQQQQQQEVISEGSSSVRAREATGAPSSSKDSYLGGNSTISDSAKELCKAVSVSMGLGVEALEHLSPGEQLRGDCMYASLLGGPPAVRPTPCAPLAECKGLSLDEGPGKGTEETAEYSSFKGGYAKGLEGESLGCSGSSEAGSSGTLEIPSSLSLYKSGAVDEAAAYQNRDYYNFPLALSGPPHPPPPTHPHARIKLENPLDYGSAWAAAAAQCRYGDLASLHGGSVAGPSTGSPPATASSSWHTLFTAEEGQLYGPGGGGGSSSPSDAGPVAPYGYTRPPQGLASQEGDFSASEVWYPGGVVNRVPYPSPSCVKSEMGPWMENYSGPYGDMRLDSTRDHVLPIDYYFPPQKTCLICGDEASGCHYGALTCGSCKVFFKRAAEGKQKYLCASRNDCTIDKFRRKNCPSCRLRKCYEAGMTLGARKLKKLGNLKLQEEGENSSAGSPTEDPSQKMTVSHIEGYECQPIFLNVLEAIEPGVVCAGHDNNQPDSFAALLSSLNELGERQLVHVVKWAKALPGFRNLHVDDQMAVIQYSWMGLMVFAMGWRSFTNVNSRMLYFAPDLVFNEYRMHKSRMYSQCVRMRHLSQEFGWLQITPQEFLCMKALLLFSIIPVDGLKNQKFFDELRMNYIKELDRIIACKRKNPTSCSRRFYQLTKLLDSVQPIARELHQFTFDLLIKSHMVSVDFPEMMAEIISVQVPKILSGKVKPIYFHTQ

Thromboxane A2 receptor = biological target: T2, Thromboxane A2 receptor (Homo sapiens, UniProt P21731); type: functional, cell-based
T2 sequence (P21731 whole entry): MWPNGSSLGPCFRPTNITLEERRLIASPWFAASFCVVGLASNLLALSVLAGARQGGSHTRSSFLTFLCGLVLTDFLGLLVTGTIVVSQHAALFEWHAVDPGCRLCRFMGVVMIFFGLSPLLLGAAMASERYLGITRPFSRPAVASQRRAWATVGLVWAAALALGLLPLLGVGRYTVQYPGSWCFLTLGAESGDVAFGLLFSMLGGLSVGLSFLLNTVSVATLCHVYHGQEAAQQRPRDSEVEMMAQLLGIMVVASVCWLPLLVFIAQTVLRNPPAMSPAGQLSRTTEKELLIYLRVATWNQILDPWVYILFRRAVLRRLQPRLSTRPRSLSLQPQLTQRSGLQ

[2] = biological target: T3, Muscarinic acetylcholine receptor M5 (Homo sapiens, UniProt P08912)
T3 sequence (P08912 whole entry): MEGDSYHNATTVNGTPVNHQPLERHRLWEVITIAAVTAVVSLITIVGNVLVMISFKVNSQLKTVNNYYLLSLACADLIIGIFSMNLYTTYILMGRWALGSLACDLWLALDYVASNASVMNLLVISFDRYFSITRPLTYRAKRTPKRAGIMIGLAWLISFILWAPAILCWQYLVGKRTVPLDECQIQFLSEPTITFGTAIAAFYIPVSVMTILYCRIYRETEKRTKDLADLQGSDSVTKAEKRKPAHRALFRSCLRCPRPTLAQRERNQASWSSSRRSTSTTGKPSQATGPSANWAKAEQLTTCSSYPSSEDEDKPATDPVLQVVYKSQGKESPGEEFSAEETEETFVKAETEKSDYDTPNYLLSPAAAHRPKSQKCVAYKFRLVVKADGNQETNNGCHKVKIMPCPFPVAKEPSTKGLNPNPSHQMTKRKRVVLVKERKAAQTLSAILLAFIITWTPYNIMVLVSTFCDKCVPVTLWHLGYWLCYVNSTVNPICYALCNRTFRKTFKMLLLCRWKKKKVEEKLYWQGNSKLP
Note: assay procedure not described here.

Synaptic vesicular amine transporter, sequence (Q01827 whole entry): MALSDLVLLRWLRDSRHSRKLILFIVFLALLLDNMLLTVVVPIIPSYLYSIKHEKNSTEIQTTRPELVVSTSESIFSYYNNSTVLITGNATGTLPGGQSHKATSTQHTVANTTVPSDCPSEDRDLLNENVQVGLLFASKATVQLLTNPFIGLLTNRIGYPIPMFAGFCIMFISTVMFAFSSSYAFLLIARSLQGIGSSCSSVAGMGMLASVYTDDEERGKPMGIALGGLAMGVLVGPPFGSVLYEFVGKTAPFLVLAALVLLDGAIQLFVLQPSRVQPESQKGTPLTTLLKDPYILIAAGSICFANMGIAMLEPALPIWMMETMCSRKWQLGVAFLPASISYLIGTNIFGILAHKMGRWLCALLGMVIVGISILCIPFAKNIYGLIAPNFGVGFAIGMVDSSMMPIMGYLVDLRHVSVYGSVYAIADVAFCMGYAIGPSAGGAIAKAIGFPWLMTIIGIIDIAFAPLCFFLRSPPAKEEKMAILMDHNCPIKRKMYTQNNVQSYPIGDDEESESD

Q: Which AC50 [1] does the source give for CC[C@@H](C(N)=O)N1CCCC1=O here?
A: Its AC50 is > 30 µM.

Q: Which AC50 (Androgen receptor) does the source give for CN(C)CC/C=C1\c2ccccc2CSc2ccccc21 [DOTHIEPIN] here?
A: The AC50 was > 30 µM.

Q: Which results are given for CCOc1ccccc1OCC1CNCCO1 (centres undefined) [VILOXAZINE]?
A: AC50 (Thromboxane A2 receptor): > 30 µM; AC50 [2]: > 10 µM
